These results are taken from US20230357239A1, “PYRIDO[2,3-D]PYRIMIDIN-4-AMINES AS SOS1 INHIBITORS” (Bayer Aktiengesellschaft, priority 2020, published 2023).

This assay concerns the target human SOS1 (SOS1) with human K-RasG12C (Homo sapiens (Human), UniProt Q07889). The assay can be described thus: hK-RasG12C interaction assay with hSOS1 (HTRF). To be noted: GST-hK-RasG12C and His-hSOS1, 60 min incubation at 20° C, mean, read-out: K-RasG12C - SOS interaction assay IC50 - [mol/l] (mean). Format: binding. How it is done:
Biochemical Assay: hK-RasG12C Interaction Assay with hSOS1
This assay quantifies the equilibrium interaction of human SOS1 (SOS1) with human K-Ras^G12C (K-RasG12C). Detection of the interaction is achieved by measuring homogenous time-resolved fluorescence resonance energy transfer (HTRF) from antiGST-Europium (FRET donor) bound to GST-K-RasG12C to anti-6His-XL665 bound to His-tagged hSOS1 (FRET-acceptor).
The assay buffer containes 5 mM HEPES pH 7.4 (Applichem), 150 mM NaCl (Sigma), 10 mM EDTA (Promega), 1 mM DTT (Thermofisher), 0.05% BSA Fraction V, pH 7.0, (ICN Biomedicals), 0.0025% (v/v) Igepal (Sigma) and 100 mM KF (FLUKA).
Concentrations of protein batches used are optimized to be within the linear range of the HTRF signal. A Ras working solution is prepared in assay buffer containing typically 10 nM GST-hK-RasG12C and 2 nM antiGST-Eu(K) (Cisbio, France). A SOS1 working solution is prepared in assay buffer containing typically 20 nM His-hSOS1 and 10 nM anti-6His-XL665 (Cisbio, France). An inhibitor control solution is prepared in assay buffer containing 10 nM anti-6His-XL665 without SOS1.
Fifty nl of a 100-fold concentrated solution of the test compound in DMSO are transferred into a black microtiter test plate (384 or 1536, Greiner Bio-One, Germany).
For this, either a Hummingbird liquid handler (Digilab, MA, USA) or an Echo acoustic system (Labcyte, CA, USA) is used.
All steps of the assay are performed at 20° C. A volume of 2.5 μl of the Ras working solution is added to all wells of the test plate using a Multidrop dispenser (Thermo Labsystems). After 2 min preincubation, 2.5 μl of the SOS1 working solution are added to all wells except for those wells at the side of the test plate that are subsequently filled with 2.5 μl of the inhibitor control solution. After 60 min incubation the fluorescence is measured with a Pherastar (BMG, Germany) using the HTRF module (excitation 337 nm, emission 1: 620 nm, emission 2: 665 nm).
The ratiometric data (emission 2 divided by emission 1) are normalized using the controls (DMSO=0% inhibition, inhibition control wells with inhibitor control solution=100% inhibition). […] IC50 values are calculated by 4-Parameter fitting using a commercial software package (Genedata Screener, Switzerland).
For orientation: TR-FRET usually uses a lanthanide donor and a delayed reading to cut background.

Structures are written as SMILES.

Chain of human SOS1 (SOS1) with human K-RasG12C (Q07889 564-1049): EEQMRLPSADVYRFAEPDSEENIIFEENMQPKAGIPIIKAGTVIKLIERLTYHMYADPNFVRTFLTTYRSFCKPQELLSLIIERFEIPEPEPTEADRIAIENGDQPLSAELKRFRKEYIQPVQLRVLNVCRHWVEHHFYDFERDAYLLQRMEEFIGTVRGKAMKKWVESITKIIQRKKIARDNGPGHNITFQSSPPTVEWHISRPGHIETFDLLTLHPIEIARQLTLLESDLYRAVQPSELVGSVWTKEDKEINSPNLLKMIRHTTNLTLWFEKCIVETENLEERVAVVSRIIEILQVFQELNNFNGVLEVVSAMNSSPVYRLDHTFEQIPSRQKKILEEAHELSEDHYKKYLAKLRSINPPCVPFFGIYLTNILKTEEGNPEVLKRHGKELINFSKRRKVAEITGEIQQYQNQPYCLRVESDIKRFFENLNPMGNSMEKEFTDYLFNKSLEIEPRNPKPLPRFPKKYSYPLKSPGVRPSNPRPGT

With `CC(=O)N1CCC(c2cnc3nc(C)nc(N[C@H](C)c4cccc(C(F)(F)F)c4C)c3c2)C1` (mixture of isomers) [Example 31, 1-{(3RS)-3-[2-methyl-4-({(1R)-1-[2-methyl-3-(trifluoromethyl)phenyl]ethyl}amino)pyrido[2,3-d]pyrimidin-6-yl]pyrrolidin-1-yl}ethan-1-one], the IC50 came out at 11.9 nM.

For `C[C@@H](Nc1ncnc2ncc(Br)cc12)c1cccc(C(F)(F)F)c1` [Example 1, 6-bromo-N-{(1R)-1-[3-(trifluoromethyl)phenyl]ethyl}pyrido[2,3-d]pyrimidin-4-amine], the IC50 came to 409 nM.

With `CC(=O)N[C@@H]1CCN(c2cnc3ncnc(N[C@H](C)c4cccc(C(F)(F)F)c4)c3c2)C1` [Example 2, N-{(3R)-1-[4-({(1R)-1-[3-(trifluoromethyl)phenyl]ethyl}amino)pyrido[2,3-d]pyrimidin-6-yl]pyrrolidin-3-yl}acetamide], the IC50 is 34 nM.

For `C[C@@H](Nc1ncnc2ncc(N3CCN(C)CC3)cc12)c1cccc(C(F)(F)F)c1` [Example 3, 6-(4-methylpiperazin-1-yl)—N-{(1R)-1-[3-(trifluoromethyl)phenyl]ethyl}pyrido[2,3-d]pyrimidin-4-amine], the IC50 was found to be 13.9 nM.

With `CC(=O)N1CCN(c2cnc3ncnc(N[C@H](C)c4cccc(C(F)(F)F)c4)c3c2)CC1` [Example 4, 1-{4-[4-({(1R)-1-[3-(trifluoromethyl)phenyl]ethyl}amino)pyrido[2,3-d]pyrimidin-6-yl]piperazin-1-yl}ethan-1-one], the IC50 turned out to be 16.3 nM.

As for `CC(=O)N1CC=C(c2cnc3ncnc(N[C@H](C)c4cccc(C(F)(F)F)c4)c3c2)CC1` [Example 5, 1-{4-[4-({(1R)-1-[3-(trifluoromethyl)phenyl]ethyl}amino)pyrido[2,3-d]pyrimidin-6-yl]-3,6-dihydropyridin-1(2H)-yl}ethan-1-one], the IC50 came out at 4.24 nM.

With `Cc1nc(N[C@H](C)c2cccc(C(F)(F)F)c2C)c2cc(Br)cnc2n1` [Example 6, 6-bromo-2-methyl-N-{(1R)-1-[2-methyl-3-(trifluoromethyl)phenyl]ethyl}pyrido[2,3-d]pyrimidin-4-amine], the IC50 was 251 nM.

With `Cc1nc(N[C@H](C)c2cccc(C(F)(F)F)c2C)c2cc(N3CC4(CN(C(=O)OC(C)(C)C)C4)C3)cnc2n1` [Example 7, tert-butyl 6-[2-methyl-4-({(1R)-1-[2-methyl-3-(trifluoromethyl)phenyl]ethyl}amino)pyrido[2,3-d]pyrimidin-6-yl]-2,6-diazaspiro[3.3]heptane-2-carboxylate], the IC50 was 180 nM.

In the case of `CC(=O)N1CC2(C1)CN(c1cnc3nc(C)nc(N[C@H](C)c4cccc(C(F)(F)F)c4C)c3c1)C2` [Example 8, 1-{6-[2-methyl-4-({(1R)-1-[2-methyl-3-(trifluoromethyl)phenyl]ethyl}amino)pyrido[2,3-d]pyrimidin-6-yl]-2,6-diazaspiro[3.3]heptan-2-yl}ethan-1-one], the IC50 turned out to be 15.7 nM.

In the case of `CC(=O)N1CCC(c2cnc3ncnc(N[C@H](C)c4cccc(C(F)(F)F)c4)c3c2)CC1` [Example 9, 1-{4-[4-({(1R)-1-[3-(trifluoromethyl)phenyl]ethyl}amino)pyrido[2,3-d]pyrimidin-6-yl]piperidin-1-yl}ethan-1-one], the IC50 amounted to 64.3 nM.

For `CC(=O)N1CCN(c2cnc3ncnc(N[C@H](C)c4cccc(C(F)(F)F)c4C)c3c2)CC1` [Example 10, 1-{4-[4-({(1R)-1-[2-methyl-3-(trifluoromethyl)phenyl]ethyl}amino)pyrido[2,3-d]pyrimidin-6-yl]piperazin-1-yl}ethan-1-one], the IC50 is 3.55 nM.

For the molecule `CC(=O)N[C@@H]1CCN(c2cnc3ncnc(N[C@H](C)c4cccc(C(F)(F)F)c4C)c3c2)C1` [Example 11, N-{(3R)-1-[4-({(1R)-1-[2-methyl-3-(trifluoromethyl)phenyl]ethyl}amino)pyrido[2,3-d]pyrimidin-6-yl]pyrrolidin-3-yl}acetamide], the IC50 turned out to be 17.6 nM.

As for `CC(=O)N1CC=C(c2cnc3ncnc(N[C@H](C)c4cccc(C(F)(F)F)c4C)c3c2)CC1` [Example 12, 1-{4-[4-({(1R)-1-[2-methyl-3-(trifluoromethyl)phenyl]ethyl}amino)pyrido[2,3-d]pyrimidin-6-yl]-3,6-dihydropyridin-1(2H)-yl}ethan-1-one], the IC50 worked out at 4.06 nM.

Consider `CC(=O)N1CC2(C1)CN(c1cnc3nc(C)nc(N[C@H](C)c4cccc(C(F)(F)F)c4C)c3c1)C2` [Example 13, 1-{6-[2-methyl-4-({(1R)-1-[2-methyl-3-(trifluoromethyl)phenyl]ethyl}amino)pyrido[2,3-d]pyrimidin-6-yl]-2,6-diazaspiro[3.3]heptan-2-yl}ethan-1-one-hydrogen chloride (1/1)], for which the IC50 worked out at 6.35 nM.

On to `CC(=O)N1C[C@@H]2C[C@H]1CN2c1cnc2nc(C)nc(N[C@H](C)c3cccc(C(F)(F)F)c3C)c2c1` [Example 14, 1-{(1S,4S)-5-[2-methyl-4-({(1R)-1-[2-methyl-3-(trifluoromethyl)phenyl]ethyl}amino)pyrido[2,3-d]pyrimidin-6-yl]-2,5-diazabicyclo[2.2.1]heptan-2-yl}ethan-1-one], for which the IC50 amounted to 5.15 nM.

As for `Cc1nc(N[C@H](C)c2cccc(C(F)(F)F)c2C)c2cc(N3CCN(C)CC3)cnc2n1` [Example 15, 2-methyl-6-(4-methylpiperazin-1-yl)—N-{(1R)-1-[2-methyl-3-(trifluoromethyl)phenyl]ethyl}pyrido[2,3-d]pyrimidin-4-amine], the IC50 was 10.6 nM.

As for `CC(=O)N[C@@H]1CCN(c2cnc3nc(C)nc(N[C@H](C)c4cccc(C(F)(F)F)c4C)c3c2)C1` [Example 16, N-{(3R)-1-[2-methyl-4-({(1R)-1-[2-methyl-3-(trifluoromethyl)phenyl]ethyl}amino)pyrido[2,3-d]pyrimidin-6-yl]pyrrolidin-3-yl}acetamide], the IC50 was determined as 17.5 nM.

Turning to `CC(=O)N1CCN(S(=O)(=O)c2cnc3nc(C)nc(N[C@H](C)c4cccc(C(F)(F)F)c4C)c3c2)CC1` [Example 17, 1-{4-[2-methyl-4-({(1R)-1-[2-methyl-3-(trifluoromethyl)phenyl]ethyl}amino)pyrido[2,3-d]pyrimidine-6-sulfonyl]piperazin-1-yl}ethan-1-one], the IC50 amounted to 3.56 nM.

With `CC(=O)N1CCN(c2cc3c(N[C@H](C)c4cccc(C(F)(F)F)c4C)nc(C)nc3nc2C)CC1` [Example 19, 1-{4-[2,7-dimethyl-4-({(1R)-1-[2-methyl-3-(trifluoromethyl)phenyl]ethyl}amino)pyrido[2,3-d]pyrimidin-6-yl]piperazin-1-yl}ethan-1-one], the IC50 stood at 8.25 nM.

For `COc1nc2nc(C)nc(N[C@H](C)c3cccc(C(F)(F)F)c3C)c2cc1N1CC2(CN(C(C)=O)C2)C1` [Example 20, 1-{6-[7-methoxy-2-methyl-4-({(1R)-1-[2-methyl-3-(trifluoromethyl)phenyl]ethyl}amino)pyrido[2,3-d]pyrimidin-6-yl]-2,6-diazaspiro[3.3]heptan-2-yl}ethan-1-one], the IC50 was 348 nM.

Consider `COc1nc2nc(C)nc(N[C@H](C)c3cccc(C(F)(F)F)c3C)c2cc1C1=CCN(C(C)=O)CC1` [Example 21, 1-{4-[7-methoxy-2-methyl-4-({(1R)-1-[2-methyl-3-(trifluoromethyl)phenyl]ethyl}amino)pyrido[2,3-d]pyrimidin-6-yl]-3,6-dihydropyridin-1(2H)-yl}ethan-1-one], for which the IC50 came to 949 nM.

On to `COc1nc2nc(C)nc(N[C@H](C)c3cccc(C(F)(F)F)c3C)c2cc1C1CCN(C(C)=O)CC1` [Example 22, 1-{4-[7-methoxy-2-methyl-4-({(1R)-1-[2-methyl-3-(trifluoromethyl)phenyl]ethyl}amino)pyrido[2,3-d]pyrimidin-6-yl]piperidin-1-yl}ethan-1-one], for which the IC50 amounted to 805 nM.

As for `COc1nc2nc(C)nc(N[C@H](C)c3cccc(C(F)(F)F)c3C)c2cc1N1CCCS1(=O)=O` [Example 23, 2-[7-methoxy-2-methyl-4-({(1R)-1-[2-methyl-3-(trifluoromethyl)phenyl]ethyl}amino)pyrido[2,3-d]pyrimidin-6-yl]-1 lambda^6,2-thiazolidine-1,1-dione], the IC50 came to 2640 nM.
